System: HPV-positive TC-1 tumor cells
Experiment: TC-1 tumor model, tumor growth and survival after single treatment
Assay type: in vivo, B6 mice
Procedure: FIG. 1 provides a survival plot: B6 mice (n=4 per group) were implanted with 50,000 TC1 tumor cells subcutaneously. On day 10, group 2 received tumor vaccine R-DOTAP−HPV mix formulation (100 μl) (ASP3-250-HPV mix) containing HPV antigens (ASP3/R-DOTAP (S.C.) in the opposite flank of the tumor and group 3 mice received intra-tumoral injection of R-DOTAP (50 μl of 6 mg/ml) (RDOTAP (IT)).
Three groups of mice were injected on day 0 with 50,000 HPV-positive TC-1 tumor cells. In order for a stringent test of antitumor effect, the tumors were allowed to grow to a size of 6-7 mm prior to treatment on Day 10. The aggressively growing tumors reached a size of 10 mm by Day 14. Group 1 mice (Naïve) were left untreated and had to be sacrificed by Day 16. The mice in Group 2 (ASP3/R-DOTAP S.C.) were treated with one subcutaneous injection of R-DOTAP+HPV16(49-57) antigen injection on the opposite flank to the tumor. The mice in Group 3 (R-DOTAP IT) were treated with a single intra-tumoral injection of R-DOTAP only. The tumor sizes and survival of all 3 groups were monitored.
FIG. 1 provides a survival plot: B6 mice (n=4 per group) were implanted with 50,000 TC1 tumor cells subcutaneously.

Question: For CCCCCCCC/C=C\CCCCCCCC(=O)OC[C@@H](C[N+](C)(C)C)OC(=O)CCCCCCC/C=C\CCCCCCCC [R-DOTAP, (R)-1,2-dioleoyl-3-trimethylammonium propane], which “antitumor efficacy (survival plot, FIG. 1)” value (intra-tumoral R-DOTAP only, 50 μl of 6 mg/ml, no antigen, compared with sub-cutaneous R-DOTAP+antigen) is on record?
Answer: The value was “comparable antitumor efficacy”.

Question: And the tumor growth rates (tumors 6-7 mm at single treatment on Day 10, data not shown)?
Answer: The tumor growth rates was “dramatic slowing of the tumor growth rates”.

Reference: patent US20220160867A1, “METHODS AND COMPOSITIONS COMPRISING CATIONIC LIPIDS FOR IMMUNOTHERAPY BY DIRECT TUMOR INJECTION” (PDS Biotechnology Corporation, priority 2020, published 2022)
